Measurements taken from the NIST ThermoML archive (doi:10.1021/je060179e).
Numbers after ± are expanded uncertainties.

Assay: xn = mol fraction of the nth substance listed
Settings: for mass density: 101 kPa, Liquid

CCCCCCCCO [octan-1-ol] + CCCCCCC
Settings	mass density [kg/m3]	surface tension liquid-gas [mN/m]
288.15 K, x2 = 0.0514	822.18 ± 0.45	–
288.15 K, x2 = 0.0516	–	26.75 ± 0.31
288.15 K, x2 = 0.0995	–	26.18 ± 0.3
288.15 K, x2 = 0.1001	816.02 ± 0.46	–
288.15 K, x2 = 0.1845	–	25.05 ± 0.3
288.15 K, x2 = 0.2015	802.93 ± 0.48	–
288.15 K, x2 = 0.3082	788.6 ± 0.5	–
288.15 K, x2 = 0.3346	–	23.74 ± 0.29
288.15 K, x2 = 0.4054	775.17 ± 0.52	–
288.15 K, x2 = 0.4142	–	23.12 ± 0.29
288.15 K, x2 = 0.5034	–	22.6 ± 0.28
288.15 K, x2 = 0.517	759.5 ± 0.54	–
288.15 K, x2 = 0.6074	–	22.16 ± 0.28
288.15 K, x2 = 0.6305	743.28 ± 0.56	–
288.15 K, x2 = 0.6639	–	21.9 ± 0.28
288.15 K, x2 = 0.7114	731.48 ± 0.58	–
288.15 K, x2 = 0.8136	716.21 ± 0.6	–
288.15 K, x2 = 0.8325	–	21.24 ± 0.28
288.15 K, x2 = 0.9061	702.2 ± 0.62	–
288.15 K, x2 = 0.9105	–	20.94 ± 0.27
288.15 K, x2 = 0.9518	695.28 ± 0.63	–
288.15 K, x2 = 0.9561	–	20.87 ± 0.27
293.15 K, x2 = 0.0514	818.71 ± 0.46	–
293.15 K, x2 = 0.0564	–	26.14 ± 0.3
293.15 K, x2 = 0.1001	812.51 ± 0.47	–
293.15 K, x2 = 0.1057	–	25.54 ± 0.3
293.15 K, x2 = 0.2015	799.33 ± 0.48	–
293.15 K, x2 = 0.2084	–	24.34 ± 0.29
293.15 K, x2 = 0.3082	784.92 ± 0.5	–
293.15 K, x2 = 0.3112	–	23.38 ± 0.29
293.15 K, x2 = 0.4054	771.41 ± 0.52	–
293.15 K, x2 = 0.4066	–	22.59 ± 0.28
293.15 K, x2 = 0.5114	–	21.96 ± 0.28
293.15 K, x2 = 0.517	755.65 ± 0.54	–
293.15 K, x2 = 0.6092	–	21.52 ± 0.28
293.15 K, x2 = 0.6305	739.34 ± 0.56	–
293.15 K, x2 = 0.7114	727.47 ± 0.58	–
293.15 K, x2 = 0.7164	–	20.99 ± 0.27
293.15 K, x2 = 0.8124	–	20.62 ± 0.27
293.15 K, x2 = 0.8136	712.11 ± 0.6	–
293.15 K, x2 = 0.8965	–	20.48 ± 0.27
293.15 K, x2 = 0.9061	698.04 ± 0.62	–
293.15 K, x2 = 0.9518	691.08 ± 0.63	–
293.15 K, x2 = 0.9573	–	20.26 ± 0.27
298.15 K, x2 = 0.0514	815.21 ± 0.46	–
298.15 K, x2 = 0.0541	–	25.64 ± 0.3
298.15 K, x2 = 0.1001	808.98 ± 0.47	–
298.15 K, x2 = 0.1083	–	25.03 ± 0.3
298.15 K, x2 = 0.2004	–	23.91 ± 0.29
298.15 K, x2 = 0.2015	795.72 ± 0.49	–
298.15 K, x2 = 0.3082	781.22 ± 0.51	–
298.15 K, x2 = 0.3137	–	22.82 ± 0.28
298.15 K, x2 = 0.405	–	22.09 ± 0.28
298.15 K, x2 = 0.4054	767.63 ± 0.53	–
298.15 K, x2 = 0.5089	–	21.44 ± 0.28
298.15 K, x2 = 0.517	751.77 ± 0.55	–
298.15 K, x2 = 0.6085	–	20.94 ± 0.27
298.15 K, x2 = 0.6305	735.37 ± 0.57	–
298.15 K, x2 = 0.7107	–	20.46 ± 0.27
298.15 K, x2 = 0.7114	723.44 ± 0.59	–
298.15 K, x2 = 0.8072	–	20.15 ± 0.27
298.15 K, x2 = 0.8136	707.99 ± 0.61	–
298.15 K, x2 = 0.9061	693.84 ± 0.63	–
298.15 K, x2 = 0.9071	–	19.82 ± 0.27
298.15 K, x2 = 0.9518	686.85 ± 0.64	–
298.15 K, x2 = 0.9536	–	19.64 ± 0.27
303.15 K, x2 = 0.0504	–	25.18 ± 0.3
303.15 K, x2 = 0.0514	811.7 ± 0.47	–
303.15 K, x2 = 0.1001	805.43 ± 0.47	–
303.15 K, x2 = 0.1033	–	24.57 ± 0.29
303.15 K, x2 = 0.2015	792.09 ± 0.49	–
303.15 K, x2 = 0.2052	–	23.46 ± 0.29
303.15 K, x2 = 0.3082	777.49 ± 0.51	–
303.15 K, x2 = 0.3108	–	22.37 ± 0.28
303.15 K, x2 = 0.4054	763.85 ± 0.53	–
303.15 K, x2 = 0.4134	–	21.56 ± 0.28
303.15 K, x2 = 0.5153	–	20.94 ± 0.27
303.15 K, x2 = 0.517	747.87 ± 0.55	–
303.15 K, x2 = 0.6005	–	20.46 ± 0.27
303.15 K, x2 = 0.6305	731.38 ± 0.58	–
303.15 K, x2 = 0.7067	–	19.98 ± 0.27
303.15 K, x2 = 0.7114	719.37 ± 0.59	–
303.15 K, x2 = 0.8043	–	19.58 ± 0.27
303.15 K, x2 = 0.8136	703.84 ± 0.61	–
303.15 K, x2 = 0.9047	–	19.22 ± 0.26
303.15 K, x2 = 0.9061	689.61 ± 0.63	–
303.15 K, x2 = 0.9486	–	19.14 ± 0.26
303.15 K, x2 = 0.9518	682.59 ± 0.64	–
308.15 K, x2 = 0.0514	808.16 ± 0.47	–
308.15 K, x2 = 0.0562	–	24.54 ± 0.29
308.15 K, x2 = 0.1001	801.85 ± 0.48	–
308.15 K, x2 = 0.1017	–	24.05 ± 0.29
308.15 K, x2 = 0.2015	788.43 ± 0.5	–
308.15 K, x2 = 0.2078	–	22.86 ± 0.28
308.15 K, x2 = 0.3065	–	21.92 ± 0.28
308.15 K, x2 = 0.3082	773.75 ± 0.52	–
308.15 K, x2 = 0.4054	760.1 ± 0.54	–
308.15 K, x2 = 0.4117	–	21.11 ± 0.27
308.15 K, x2 = 0.5064	–	20.53 ± 0.27
308.15 K, x2 = 0.517	743.94 ± 0.56	–
308.15 K, x2 = 0.6065	–	20 ± 0.27
308.15 K, x2 = 0.6305	727.36 ± 0.58	–
308.15 K, x2 = 0.7081	–	19.61 ± 0.27
308.15 K, x2 = 0.7114	715.28 ± 0.6	–
308.15 K, x2 = 0.8	–	19.27 ± 0.26
308.15 K, x2 = 0.8136	699.65 ± 0.62	–
308.15 K, x2 = 0.9028	–	18.88 ± 0.26
308.15 K, x2 = 0.9061	685.35 ± 0.64	–
308.15 K, x2 = 0.9483	–	18.82 ± 0.26
308.15 K, x2 = 0.9518	678.3 ± 0.65	–
